Experimental data from patent US9201014B2, “Development of photostable near-IR cyanine dyes for in vivo imaging” (National University of Singapore, priority 2010, dated 2015).

Experiments:
Type in all cases: physicochemical
[1] = Characterization of the CyNAMLA library (absorbance maximum wavelengths); settings: absorbance maximum wavelength of CyNAMLA library compounds
Description: The amine group of 21 was protected using di-tert-butyl dicarbonate then derivatized with 80 different primary amines (for structures, see FIGS. 14A-14D). After acetylation of the newly-introduced amine, the compounds were treated with a solution of TFA-DCM (1:9) to remove the tert-butylcarbamate protecting group. The deprotected amine was then coupled to lipoic acid to yield CyNAMLA derivatives with an average purity of 90% (for HPLC-determined purities, see Table 6).

[2] = Primary screen of SERS intensities of CyNAMLA-functionalized AuNPs (compact Raman scanner); settings: SERS spectra of CyNAMLA-functionalized AuNPs; excitation at 785 nm, laser power 60 mW
Description: FIG. 15 is a graph of the comparative surface-enhanced Raman spectroscopy (SERS) intensities of members of the CyNAMLA library measured with an excitation wavelength of 785 nm and a laser power of 60 mW in a compact Raman scanner.
The CyNAMLA compounds were adsorbed onto AuNPs having a diameter of approximately 60 nm, and the SERS properties of the resulting CyNAMLA-functionalized AuNPs were evaluated using a compact Raman scanner. Among metal nanoparticles, AuNPs are particularly suitable for in vivo applications due to their low toxicity, adaptability to bioconjugation, and reproducible signal intensity and quantification.

[3] = Primary screening of photostability of the CyNA library (time-course fluorescence, 8 h); set-up: F/Fo, fluorescent intensity at 8 hours vs 0 hours: unit: %; settings: 10 μM in HEPES 100 mM pH 7.4, 2% DMSO
Procedure, shortened: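 CyNA dyes at 10 μM in 100 mM HEPES pH 7.4 with 2% DMSO irradiated by xenon lamp for 8 h. Fluorescence (ex/em 790-820 nm) read every 10 min; stability given as F8h/Fo.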

[4] = Absorbance and fluorescence maximum wavelengths and quantum yields of the CyNA library; settings: for λabs, absorbance maximum wavelength / λem, fluorescence maximum wavelength: CyNA library; for φ, quantum yield: in DMSO, Cardiogreen as standard
Procedure, shortened: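 Absorption and emission maxima and quantum yields of the 80-member amine-derivatized CyNA library were measured on a plate spectrophotometer.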

Structure (SMILES)	λabs (max) [1] [nm]	Raman intensity [2]	F/Fo, fluorescent intensity at 8 hours vs 0 hours [3]	max RFU, maximum relative fluorescence units [3]	λabs, absorbance maximum wavelength [4] [nm]	λem, fluorescence maximum wavelength [4] [nm]	φ, quantum yield [4]
CCCN1/C(=C/C=C2\CCCC(/C=C/C3=[N+](CCCNC(=O)CCCCC4CCSS4)c4ccccc4C3(C)C)=C2N(CCc2ccc(OC)cc2)C(C)=O)C(C)(C)c2ccccc21.O=C([O-])C(F)(F)F (centres unmarked) [CyNAMLA-395]	805	1876	–	–	–	–	–
CCCN1/C(=C/C=C2\CCCC(/C=C/C3=[N+](CCCNC(=O)CCCCC4CCSS4)c4ccccc4C3(C)C)=C2N(CCCN2CCCC2)C(C)=O)C(C)(C)c2ccccc21.O=C([O-])C(F)(F)F (centres unmarked) [CyNAMLA-611]	804	18833	–	–	–	–	–
CCCCN(C(C)=O)C1=C(/C=C/C2=[N+](CCCNC(=O)CCCCC3CCSS3)c3ccccc3C2(C)C)CCC/C1=C\C=C1\N(CCC)c2ccccc2C1(C)C.O=C([O-])C(F)(F)F (centres unmarked) [CyNAMLA-373]	804	2487	–	–	–	–	–
CCCN1/C(=C/C=C2\CCCC(/C=C/C3=[N+](CCCNC(=O)CCCCC4CCSS4)c4ccccc4C3(C)C)=C2N(Cc2ccc(Cl)cc2Cl)C(C)=O)C(C)(C)c2ccccc21.O=C([O-])C(F)(F)F (centres unmarked) [CyNAMLA-531]	805	5272	–	–	–	–	–
CCCN1/C(=C/C=C2\CCCC(/C=C/C3=[N+](CCCNC(=O)CCCCC4CCSS4)c4ccccc4C3(C)C)=C2N(CCc2ccc(Cl)cc2)C(C)=O)C(C)(C)c2ccccc21.O=C([O-])C(F)(F)F (centres unmarked) [CyNAMLA-677]	805	2455	–	–	–	–	–
CCCN1/C(=C/C=C2\CCCC(/C=C/C3=[N+](CCCNC(=O)CCCCC4CCSS4)c4ccccc4C3(C)C)=C2N(Cc2ccccc2OCC)C(C)=O)C(C)(C)c2ccccc21.O=C([O-])C(F)(F)F (centres unmarked) [CyNAMLA-103]	806	6424	–	–	–	–	–
CCCCCCCN(C(C)=O)C1=C(/C=C/C2=[N+](CCCNC(=O)CCCCC3CCSS3)c3ccccc3C2(C)C)CCC/C1=C\C=C1\N(CCC)c2ccccc2C1(C)C.O=C([O-])C(F)(F)F (centres unmarked) [CyNAMLA-277]	804	2046	–	–	–	–	–
CCCN1/C(=C/C=C2\CCCC(/C=C/C3=[N+](CCCNC(=O)CCCCC4CCSS4)c4ccccc4C3(C)C)=C2N(CCCN(C)C)C(C)=O)C(C)(C)c2ccccc21.O=C([O-])C(F)(F)F (centres unmarked) [CyNAMLA-427]	805	1735	–	–	–	–	–
CCCN1/C(=C/C=C2\CCCC(/C=C/C3=[N+](CCCNC(=O)CCCCC4CCSS4)c4ccccc4C3(C)C)=C2N(CCc2ccc(Cl)cc2Cl)C(C)=O)C(C)(C)c2ccccc21.O=C([O-])C(F)(F)F (centres unmarked) [CyNAMLA-686]	806	8146	–	–	–	–	–
CCCN1/C(=C/C=C2\CCCC(/C=C/C3=[N+](CCCNC(=O)CCCCC4CCSS4)c4ccccc4C3(C)C)=C2N(CCc2ccccc2-c2ccccc2)C(C)=O)C(C)(C)c2ccccc21.O=C([O-])C(F)(F)F (centres unmarked) [CyNAMLA-599]	804	11616	–	–	–	–	–
CCCCCCCCCCCCCN(C(C)=O)C1=C(/C=C/C2=[N+](CCCNC(=O)CCCCC3CCSS3)c3ccccc3C2(C)C)CCC/C1=C\C=C1\N(CCC)c2ccccc2C1(C)C.O=C([O-])C(F)(F)F (centres unmarked) [CyNAMLA-55]	805	1125	–	–	–	–	–
CCCN1/C(=C/C=C2\CCCC(/C=C/C3=[N+](CCCNC(=O)CCCCC4CCSS4)c4ccccc4C3(C)C)=C2N(Cc2cccc(C)c2)C(C)=O)C(C)(C)c2ccccc21.O=C([O-])C(F)(F)F (centres unmarked) [CyNAMLA-398]	805	2629	–	–	–	–	–
CCCN1/C(=C/C=C2\CCCC(/C=C/C3=[N+](CCCNC(=O)CCCCC4CCSS4)c4ccccc4C3(C)C)=C2N(Cc2cccc(Br)c2)C(C)=O)C(C)(C)c2ccccc21.O=C([O-])C(F)(F)F (centres unmarked) [CyNAMLA-341]	804	1071	–	–	–	–	–
CCCN1/C(=C/C=C2\CCCC(/C=C/C3=[N+](CCCNC(=O)CCCCC4CCSS4)c4ccccc4C3(C)C)=C2N(CCCOC(C)C)C(C)=O)C(C)(C)c2ccccc21.O=C([O-])C(F)(F)F (centres unmarked) [CyNAMLA-274]	806	6417	–	–	–	–	–
CCCN1/C(=C/C=C2\CCCC(/C=C/C3=[N+](CCCNC(=O)CCCCC4CCSS4)c4ccccc4C3(C)C)=C2N(Cc2ccc(OC)cc2OC)C(C)=O)C(C)(C)c2ccccc21.O=C([O-])C(F)(F)F (centres unmarked) [CyNAMLA-358]	804	1121	–	–	–	–	–
CCCN1/C(=C/C=C2\CCCC(/C=C/C3=[N+](CCC)c4ccccc4C3(C)C)=C2N(Cc2ccccc2Cl)C(C)=O)C(C)(C)c2ccccc21 [CyNA-364]	–	–	98	264.8	804	821	0.05
CCCCN(C(C)=O)C1=C(/C=C/C2=[N+](CCC)c3ccccc3C2(C)C)CCC/C1=C\C=C1\N(CCC)c2ccccc2C1(C)C [CyNA-373]	–	–	76	567.2	805	820	0.07
CCCN1/C(=C/C=C2\CCCC(/C=C/C3=[N+](CCC)c4ccccc4C3(C)C)=C2N(Cc2ccccn2)C(C)=O)C(C)(C)c2ccccc21 [CyNA-401]	–	–	91	856.5	805	820	0.10
CCCN1/C(=C/C=C2\CCCC(/C=C/C3=[N+](CCC)c4ccccc4C3(C)C)=C2N(CCc2ccccc2Cl)C(C)=O)C(C)(C)c2ccccc21 [CyNA-480]	–	–	51	154.8	803	817	0.06
CCCN1/C(=C/C=C2\CCCC(/C=C/C3=[N+](CCC)c4ccccc4C3(C)C)=C2N(Cc2cc(OC)cc(OC)c2)C(C)=O)C(C)(C)c2ccccc21 [CyNA-262]	–	–	81	816.5	803	822	0.10
CCCN1/C(=C/C=C2\CCCC(/C=C/C3=[N+](CCC)c4ccccc4C3(C)C)=C2N(CCC(C)(C)C)C(C)=O)C(C)(C)c2ccccc21 [CyNA-92]	–	–	64	420.2	805	821	0.09
CCCN1/C(=C/C=C2\CCCC(/C=C/C3=[N+](CCC)c4ccccc4C3(C)C)=C2N(Cc2ccccc2F)C(C)=O)C(C)(C)c2ccccc21 [CyNA-375]	–	–	98	533.7	804	821	0.07
CCCN1/C(=C/C=C2\CCCC(/C=C/C3=[N+](CCC)c4ccccc4C3(C)C)=C2N(Cc2cccc(Br)c2)C(C)=O)C(C)(C)c2ccccc21 [CyNA-341]	–	–	100	259.2	805	822	0.10
CCCN1/C(=C/C=C2\CCCC(/C=C/C3=[N+](CCC)c4ccccc4C3(C)C)=C2N(Cc2ccc(F)cc2)C(C)=O)C(C)(C)c2ccccc21 [CyNA-218]	–	–	85	549.9	802	823	0.08
CCCCCN(C(C)=O)C1=C(/C=C/C2=[N+](CCC)c3ccccc3C2(C)C)CCC/C1=C\C=C1\N(CCC)c2ccccc2C1(C)C [CyNA-419]	–	–	91	835.2	804	820	0.13
